Here are results for 9 compounds from patent publication US20250100962A1 (CITY OF HOPE, priority 2023, published 2025).

The subject of assay [1] is CLOCK protein. In words: CLOCK protein palmitoylation (acyl-biotin exchange) and stability. Format: cell-based. An excerpt: FIGS. 11A-11C. Analysis of CLOCK protein S-palmitoylation. FIGS. 11A-11B: Identification of CLOCK palmitoylation by acyl-biotin exchange method using hydroxylamine (HAM). […] FIG. 11C: Structural modeling of the palmitoylation pocket and the docking pose within the hydrophobic pocket that lies between the interface of CLOCK interaction with Bmal1. FIGS. 12A-12C. Palmitoylation modulates CLOCK protein stability and interaction with Bmal1. […] FIG. 12B: CLOCK palmitoylation cysteine mutations inhibit its interaction with heterodimer partner Bmal1 and Bmal1 stability by single amino acid mutations. FIG. 12C: CLOCK palmitoylation site mutations attenuated CLOCK-mediated transcription activation.

Assay [2] concerns C2C12 myoblasts. In words: Myogenic differentiation of C2C12 myoblasts. Particulars: Table 1 summary of CHX analogs. The assay is classed as cell-based, mouse. The protocol: Pictures were taken every day to monitor morphological progression, and proteins and RNA samples were collected on days indicated.
C2C12, C2C12 Bmal1 KD and C2C12 Scrambled control (SC) myoblasts were seeded at Day −1 at 2×105 concentration on 12 wells plates and maintained in 10% FBS until 80% confluency and treated with indicated compounds and controls in 2% FBS DMEM media to induce differentiation on Day 0. On days 3, 5 and 7 cells were fixed with 4% paraformaldehyde (from 37% Formaldehyde Baker Analyzed) and kept at 4° C. in PBS. Cells were permeabilized with Permeabilization solution of 0.5% Triton X-100 (Fisher Bioreagents CN: 9002-93-1) in PBS and blocked with Blocking solution of 1% BSA (Fisher Bioreagents CN:9048-46-8) in PBS. Primary antibodies were diluted in Washing solution of 0.01% Triton X-100 (Fisher Bioreagents CN: 9002-93-1) in PBS and left overnight at 4° C. Cells were then incubated with secondary antibodies in Washing solution at room temperature for 1 h. 1 μg/ml 4′,6′-diamidine-2′-phenylindole dihydrochloride (DAPI) was used to label for nuclei. […] To quantify the proliferation of myoblast, when needed, cells were treated with 1 μg/ml of EdU for 3 h before fixation. Detection of EdU was performed with Click-iT EdU Alexa Fluor 488 Imaging Kit before applying the immunofluorescence staining as described above.

In assay [3] the test system is U2OS cells containing Per2::dLuc luciferase reporter. The assay is described as follows: Real-time bioluminescence monitoring of Per2::Luciferase reporter in U2OS cells (LumiCycle). Format: cell-based. The following applies: for LumiCycle Result: Clock activity, Amplitude / LumiCycle Result: Clock activity, Period: Table 1; for LumiCycle Result: Clock activity, Amplitude / LumiCycle Result: Clock activity (overall) / LumiCycle Result: Clock activity, Period: U2OS Per2::dLuc; for LumiCycle Result: Clock activity (overall): CHX analogs screened; for Modulatory Property: clock-modulatory classification. The method, then:
U2OS cells or mouse fibroblasts (MF) containing a Per2-luciferase reporter (Yoo et al., 2004) were seeded at 4×10^5 concentration on 24 well plates and treated at 90% confluence with 1 ml 1×Fresh explant medium with desired compounds and controls. The seeding density was decided after trying several densities and choosing the one that after 24 h lead to 90% confluence. 1× Fresh explant medium was produced using 50% 2×DMEM buffer stock [DMEM powder (Gibco—Thermo Fisher CN: 12800-017), Sterile MilliQ water, pH7 1 M HEPES (Gibco—Thermo Fisher CN:15630080) and 7.5% Sodium Bicarbonate (Gibco—Thermo Fisher CN: 25080094)], 10% FBS (Cytiva), 37.9% Sterile MiliQ water, 1% PSG 100× (Gibco—Thermo Fisher CN: 10378016), 0.1% Sodium Hydroxixe (NaOH) 100 mM (Fishel Chemical CN: S318-500), 1% XenoLight D-Luciferin—Monopotassium Salt Bioluminiscent Substrate 100 mM (PerkinElmer CN: 122799). Treated cells were introduced to the LumiCycle96 (ActiMetrics) were they were cultured and Per2-luciferafe reporter luminescence was measured for 6 days. Raw and subtracted results for 5 days were exported and data was calculated as luminescence counts per second.

The test system of assay [4] is mice. The following applies: chow and high-fat diet; Xiong et al., 2023; cited from earlier work.

With `CCCCCCCCCCCCCCC(Br)C(=O)O` (centres unmarked) [2-BrP], the CLOCK protein stability result in assay [1] is on record as “reduces CLOCK protein stability”. Besides, the CLOCK palmitoylation result in assay [1] (Flag-tagged CLOCK in HEK 293T cells) is on record as “loss of CLOCK palmitoylation”.

On to `CCCCCCCNC(=N)NC(=N)Nc1ccc(Cl)cc1` [CM001], for which the Myogenesis entry in assay [2] was “No effect”. For the same compound, the “LumiCycle Result: Clock activity, Amplitude” value in assay [3] is “Amplitude: No effect”.

On to `N=C(NCCCCCCNC(=N)Nc1ccc(Cl)cc1)NC(=N)Nc1ccc(Cl)cc1` [CM003], for which, in assay [3], the “LumiCycle Result: Clock activity (overall)” value is “No effect”. On to `N=C(NCCCCCCNC(=N)Nc1ccc(Cl)cc1)Nc1ccc(Cl)cc1` [CM004], for which the Myogenesis result in assay [2] was “Enhanced”. Further, in assay [3], the “LumiCycle Result: Clock activity, Amplitude” value is listed as “Amplitude: Increased”; the “LumiCycle Result: Clock activity, Period” value was “Period: Shortening”; the “Modulatory Property” value is listed as “Activator”. The like results for `N=C(NCCCCCCCCCCCCCCNC(=N)NC(=N)Nc1ccc(Cl)cc1)NC(=N)Nc1ccc(Cl)cc1` [CM005] were, in that order, “Slight inhition”, “Amplitude: Increased at low”, “Period: Lengthening” and “Inhibitor”. Turning to `CCCCCCCNC(=N)Nc1nc2ccc(Cl)cc2[nH]1` [CM007], the “LumiCycle Result: Clock activity (overall)” value in assay [3] is recorded as “No effect”. On the same count and under the same terms, to `N=C(NCCCCCCNC(N)=O)NC(=N)Nc1ccc(Cl)cc1` [CM008] belongs “Cellular toxicity”. Take `COc1ccc(-c2cc(=O)c3c(OC)c(OC)c(OC)c(OC)c3o2)cc1OC` [Nobiletin]: the anti-obesity effect result in assay [4] was “strong anti-obesity effect”. For the compound `CCCCCCCCCCC[C@@H](C[C@@H]1OC(=O)[C@H]1CCCCCC)OC(=O)[C@H](CC(C)C)NC=O` [Orlistat], the CLOCK protein stability result in assay [1] was “reduces CLOCK protein stability”.
